Patent publication EP1674467A1, “2,5- and 2,6-disubstituted benzazole derivatives useful as protein kinase inhibitors” (4SC AG, priority 2004, dated 2006)

The compounds below were run against at least one kinase selected from Aurora-A, Aurora-B, EGF-R, ERBB2, PDGFR, IGF1-R, VEGF-R2, VEGF-R3, EPHB4, Tie2, and SRC (assay: 33PanQinase Activity Assay (protein kinase assay)). Settings: on at least one kinase of the listed panel, or on at least two kinases from at least two different molecular mechanisms of tumor progression; 1 µM [γ-33P]-ATP, 30°C, 80 minutes.
Format: biochemical, human
Protocol: The effect of the benzazole derivatives was tested on recombinant, human protein kinases. All protein kinases were expressed in Sf9 insect cells as human recombinant GST-fusion proteins or as His-tagged proteins by means of the baculovirus expression system. Protein kinases were purified by affinity chromatography using either GSH-agarose or Ni-NTH-agarose. The purity and identity of each was checked by SDS-PAGE/silver staining and by western blot analysis with specific antibodies.
A proprietary protein kinase assay (^33PanQinase® Activity Assay) was used for measuring the kinase activity. All kinase assays were performed in 96-well FlashPlates™ in a 50 µl reaction volume. The assay for all enzymes contained 60 mM HEPES-NaOH, pH 7.5, 3 mM MgCl2, 3 mM MnCl2, 3 µM Na-orthovanadate, 1.2 mM DTT, 50 µg/ml PEG20000 and 1 µM [γ-^33P]-ATP (approx. 5x10^5 cpm per well). The reaction cocktails were incubated at 30°C for 80 minutes. The reaction was stopped with 50 µl of 2% (v/v) H3PO4, plates were aspirated and washed two times with 200 µl of 0.9% (w/v) NaCl. Incorporation of ^33Pi was determined with a microplate scintillation counter. All assays were performed with a BeckmanCoulter/ Sagian robotic system.

IC50, < 500 nM:
COc1cc2ncnc(Nc3nc4cc(NC(=O)Nc5ccc(Cl)c(C(F)(F)F)c5)ccc4s3)c2cc1OC [Example 20, 1-(4-Chloro-3-trifluoromethylphenyl)-3-[2-(6,7-dimethoxyquinazolin-4-yl-amino)benzothiazol-5-yl]urea]
COc1cc2ncnc(Nc3nc4ccc(NC(=O)Nc5cccc(C(F)(F)F)c5)cc4s3)c2cc1OC [Example 15, 1-[2-(6,7-Dimethoxyquinazolin-4-ylamino)benzothiazol-6-yl]-3-(3-trifluoromethylphenyl)urea]
COc1cc2ncnc(Nc3nc4ccc(NC(=O)Nc5cccc(F)c5)cc4s3)c2cc1OC [Example 14, 1-[2-(6,7-Dimethoxyquinazolin-4-ylamino)benzothiazol-6-yl]-3-(3-fluorophenyl)urea]
COc1cc2ncnc(Nc3nc4ccc(NC(=O)Nc5ccc(Cl)c(C(F)(F)F)c5)cc4s3)c2cc1OC [Example 18, 1-(4-Chloro-3-trifluoromethylphenyl)-3-[2-(6,7-dimethoxyquinazolin-4-yl-amino)benzothiazol-6-yl]urea]
COc1cc2ncnc(Nc3nc4ccc(NC(=O)c5cccc(OC(F)(F)F)c5)cc4s3)c2cc1OC [Example 11, N-[2-(6,7-Dimethoxyquinazolin-4-ylamino)-benzothiazol-6-yl]-3-trifluoromethoxybenzamide]
COc1cc2ncnc(Nc3nc4ccc(NC(=O)Nc5ccccc5)cc4s3)c2cc1OC [Example 12, 1-[2-(6,7-Dimethoxyquinazolin-4-ylamino)benzothiazol-6-yl]-3-phenylurea]
COc1cc2c(Nc3nc4ccc(NC(=O)Nc5ccc(Cl)c(C(F)(F)F)c5)cc4s3)ncnc2cc1OCCCN1CCN(C)CC1 [Example 19, 1-(4-Chloro-3-trifluoromethylphenyl)-3-(2-{6-methoxy-7-[3-(4-methylpiperazin-1-yl)-propoxy]quinazolin-4-ylamino}benzothiazol-6-yl)urea]
